Residues, ends and D or L forms follow the SMILES beside them.
Biological target: β-amyloid (also known as βA4) peptide (Homo sapiens, UniProt P05067)
Assay: Bradford dye (Coomassie Brilliant Blue G-250) assay of β-amyloid peptide aggregation, absorbance at 595 nm
Format: biochemical
Settings: for inhibition at 500 µM: 500 µM compound; for inhibition at 1000 µM: 1 mM (or 1000 µM) compound
Method: β-amyloid (also known as βA4) peptide was dissolved in 100% dimethylsulfoxide (DMSO) at 10 mg/mL (or 2500 µM) concentration. The resultant solution was diluted to 1 mg/ml (or 250 µM) stock in Phosphate Buffered Saline (PBS), pH 7.4, just prior to setting up the assay and dispensed in individual sample wells of a Corning 96-well plate at 16µL per well (i.e. a final concentration of 25 µM). All treatments were done in triplicate.
In this example, the candidate compound was added to the test wells at three different concentrations (250µM, 500µM and 1mM). Total volume in each well was brought up to 160µL with PBS. For untreated control wells, no compound was added to the β-amyloid peptide, and the total volume was made to 160µL with PBS. The plates were sealed with parafilm and incubated at 37°C for 48 hours.
(§1) At the end of the incubation period, the plates were taken out and 25µL of Bio-Rad protein assay dye reagent (Bradford dye) was added to all the wells with samples. A standard curve was also set up at this time for estimation of fresh (also considered as unaggregared) peptide absorbance. The dye was mixed by pipeting and the plates quickly spun at 2500 rpm to remove bubbles.
The absorbance was read at 595 nm in a Dynatech MR5000 plate reader 15 minutes after adding the dye. The percent decrease in aggregation of β-amyloid due to the addition of candidate compound A41920t which is a 8-mer peptide of sequence Glutamine-Lysine-Leucine-Valine-Threonine-Threonine-Alanine-Glutamate ([…]) was calculated from the difference between untreated aggregated peptide and the treated aggregated peptide.
The procedure of Example 1 was repeated except that hydrogen peroxide (10µL of 30% stock) was added to the wells in a 96-well plate with 16µL of the 1 mg/mL β-amyloid stock. The final volume was then brought up to 160µL by adding 134µL of PBS to these wells. The plate was sealed and incubated at 37°C for 48 hours.
as §1, with “samples as in Example 1.” for “samples.”, “again used” for “also set up at this time”, “unaggregated)” for “unaggregared)”
The absorbance was read at 595nm in the Dynatech MR5000 plate reader 15 minutes after adding the dye. The amount of aggregation was estimated by subtracting background and taking the difference between the fresh and hydrogen peroxide treated β-amyloid readings. The difference was expressed as percent over fresh or unaggregated peptide.

[1] = 25 µM β-amyloid, PBS pH 7.4, 37°C, 48 hours, read-out: percent decrease in aggregation of β-amyloid

Sequence of β-amyloid (also known as βA4) peptide (P05067 672-713 limits assumed): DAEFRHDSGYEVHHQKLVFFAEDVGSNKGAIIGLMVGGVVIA

inhibition at 500 µM [1] [%] | inhibition at 1000 µM [1] [%] | inhibition at 250 µM (250 µM compound, 25 µM β-amyloid, PBS pH 7.4, 37°C, 48 hours, read-out: percent decrease in aggregation of β-amyloid) [%] | SMILES | percentage of aggregation (10µL of 30% stock in 160µL, 37°C, after 48 hrs, percent over fresh or unaggregated peptide) [%]
29.7 | 37.4 | – | CCCn1cnc2c1c(=O)n(CCCCC(C)=O)c(=O)n2C [propentofylline, 1-(5'-oxohexyl)-3-methyl-7-propyl-2,6-(1H,3H)-purinedione] | –
52.4 | 32.3 | 48.1 | CC(C)CC(NC(=O)C(CCCCN)NC(=O)C(N)CCC(N)=O)C(=O)NC(C(=O)NC(C(=O)NC(C(=O)NC(C)C(=O)NC(CCC(=O)O)C(=O)O)C(C)O)C(C)O)C(C)C (stereo not drawn) [A41920t, Glutamine-Lysine-Leucine-Valine-Threonine-Threonine-Alanine-Glutamate (QKLVTTAE)] (H-QKLVTTAE-OH; configuration not given here) | –
– | – | – | OO [hydrogen peroxide] | 97.7
